According to patent US5242902A, “Defensin peptide compositions and methods for their use” (The Regents of the University of California, priority 1989, dated 1993):

Legend:
[1] = system: Nakano mouse lens epithelial cells; assay: In vitro cell growth assay (3H-thymidine incorporation, cell counts), serum free; format: cell-based
Experimental: (§1) Cell growth assays were performed as previously described in Reid et al., (1987), J. Biol. Chem. 262:229-233. Briefly, cells were grown to confluence in 96-well plates in media plus serum and arrested in G0/G1 by either serum starvation for 2-days (epithelial cells) or 8-10 day serum depletion followed by serum starvation for 1-day (fibroblasts). At this point the media was removed and new media with the desired factors was added. Approximately 16 hours later ^3 -thymidine was added and 20 to 28 hours later the cells were washed, lysed and the amount of ^3 H-thymidine incorporated into DNA was measured. In some cases, actual cell counts were performed.
(§2) The growth stimulatory properties of human defensins HNP-1, HNP-2, HNP-3 and rabbit defensins NP-1 and NP-5 in a serum free growth assay system were tested. SIRC rabbit corneal epithelial cells, Nakano mouse lens epithelial cells, and NIH 3T3 fibroblasts were utilized in these studies.

NIH 3T3 fibroblasts = assay: In vitro cell growth assay (3H-thymidine incorporation), serum free; format: cell-based
Experimental: as §1, §2

[2] = system: SIRC rabbit corneal epithelial cells; assay: as above; format: cell-based
Experimental: as §1, §2

[3] = system: capsaicin-treated corneas; format: in vivo
Experimental: Capsaicin-treated corneas from adult rabbits were used to determine the effects of topically applied defensins on corneal re-epithelialization. Capsaicin depletes neuropeptides which have an effect on wound healing (data not shown). The rabbits received 0.4 ml of lidocaine diluted in 2.6 ml of sterile saline delivered subcutaneously between the cranial aspect of the interscapular space. After 10 minutes, 50 mg/kg of capsaicin (100 mg/ml) was delivered through a 11/2 inch 25 gauge needle. Repeat injections of capsaicin was given once a day for four additional days. Three weeks from the last injection bilateral corneal defects were created as described below and the eyes treated topically with test solutions. The cornea was treated with two drops of test solution after creation of the epithelial defect. Upon completion of surgery, the rabbit was returned to its cage onto a warm heating pad. Sequential corneal photographs were taken after installation of fluoroscein and the rate of epithelial wound healing determined.
The effects of topically applied HNP-1 on the epithelial wound healing of neuropeptide depleted rabbit corneas was investigated. Corneas of rabbits treated systemically with capsaicin have impaired epithelial healing. In this model, capsaicin (50 mg/kg) was injected subcutaneously for 5 consecutive days into New Zealand white rabbits. Lidocaine was delivered subcutaneously into the capsaicin injection site 10 minutes prior to the first injection. Three weeks after the injections, the animals were anesthetized (ketamine/xylazine), topical anesthetic applied to the cornea, and the epithelium debrided circumferentially to the limbal margin of clear cornea. Absolute alcohol on microcellulose sponges and a dull #15 Bard Parker blade were used to remove the epithelium. Care was taken that no alcohol ran over the clear corneal edge to damage the limbal epithelium. The corneas were stained with fluorescein and photographed twice daily to monitor re-epithelialization. […]

[4] = system: panel of organisms in stationary growth phase; settings: cited from earlier work

Substance | growth promoting response with bovine serum albumin ([1]; 5 mg/ml BSA added at varying times after stimulation (FIGS. 7 and 8), preliminary) | suppression at higher concentrations (NIH 3T3 fibroblasts; 3T3 fibroblast cells, higher concentrations) | stimulatory properties (DNA synthesis) (NIH 3T3 fibroblasts; 3T3 fibroblasts, presence and absence of insulin (FIG. 10)) | stimulatory properties (DNA synthesis) ([2]; corneal epithelial cells (FIG. 9)) | effect at higher concentrations ([2]; corneal epithelial cells, higher concentrations) | time to re-epithelialization of treated eye ([3]; 100 μg/ml topical 4 times a day, control eye healed at 6.5 days) [days] | re-epithelialization of treated versus fellow control eye ([3]; 100 μg/ml topical, one rabbit) | effect on the cornea or conjunctiva (tolerability) ([3]; topical, 4 times a day, 40 or 100 μg/ml in sterile water, four rabbits) | relative antimicrobial potency among defensins [4] | actual cell number ([1]; cell counts (FIG. 6)) | stimulatory effect on cell number compared with insulin and EGF ([1]; insulin and EGF at concentrations which elicit maximal response (FIG. 6))
HNP-1: human neutrophil defensin peptide isolated from PMN; sequence in Table 1 | response curve is shifted to the right and that the plateau phase is extended | not observed | stimulatory | stimulatory | suppression observed at higher concentrations | 5.5 | both corneas re-epithelialized simultaneously | no deleterious effect on the cornea or conjunctiva | most potent antimicrobial properties | – | –
HNP-3: human neutrophil defensin peptide; sequence in Table 1 | – | – | – | – | – | – | – | – | – | increase in actual cell number | surpassed that of insulin and EGF
